Patent US11926631B2, “Method of treating cancer using amanitin derivatives” (Heidelberg Pharma Research GmbH, priority 2017, dated 2024)
*1 amine or outer side, *2 acyl side, *3 side chain or, on linkers, in order; H or OH if unused. Where a SMILES comes first, the peptide text is derived from it. Bridges are numbered along the chain shown (N, C = ends). [ ]: non-standard residue; d: D form. ξ: configuration not given here. Ile(4R-OH,5-OH) = C[C@H]([C@H](N)C(=O)O)[C@@H](O)CO; X2 = Nc1ccc2c(CC(N[*:1])C(=O)[*:2])c([*:3])[nH]c2c1; X1 = O=C([C@@H]1CC(O)CN1[*:1])[*:2]; ξC = NC(CS)C(=O)O

Experiments:
[1] = target: DNA-dependent RNA polymerase II (Homo sapiens, UniProt P24928+P30876); conditions: background statement, no test in the patent; read-out: KD of the complex with RNA-polymerase II; cited from earlier work
[2] = BrdU cell proliferation assay (cytotoxicity) on HEK293 cells; assay type: cell-based; conditions: human, 96 h incubation, BrdU assay (FIG. 4)
Method: (§1) BrdU Cell Proliferation Assay on HEK293 and HEK293 OATP1B3 cells
(§2) Black 96-well plates with clear bottom with 2.0×10^3 HEK293 and HEK293 OATP1B3 cells/well and 90 μl growth medium per well including 10% FCS and supplements were prepared. Controls: “Blank” was set up with 100 μl medium without cells, “Background” and “100%” were set up with cells in 100 μl medium.
(§3) Incubation for 24 h at 37° C. and 5% CO2.
(§4) Dilution Scheme of HDP 30.2528 and Alpha-Amanitin:
(§5) The stock solutions were diluted 1:1,000 (1:10 and 1:100 dilution) in medium: • 10 μl Amanitin derivative stock solution (1.0×10^−2 M)+90 μl PBS=100 μl 1.0×10^−3 M • 2 μl dilution+198 μl medium=200 μl 1×10^−5 M
Further Dilutions: • A: 200 μl 1.0×10^−5 M • B: 80 μl growth medium+20 μl solution A (1:5 dilution) • C: 80 μl growth medium+20 μl solution B (1:5 dilution) • D: 80 μl growth medium+20 μl solution C (1:5 dilution) • E: 80 μl growth medium+20 μl solution D (1:5 dilution) • F: 80 μl growth medium+20 μl solution E (1:5 dilution) • G: 80 μl growth medium+20 μl solution F (1:5 dilution) • H: 80 μl growth medium+20 μl solution G (1:5 dilution)
10 μl of each solution were added to well triplicates. […]

[3] = BrdU cell proliferation assay (cytotoxicity) on HEK293 OATP1B3 cells; assay type: cell-based; conditions: human, 96 h incubation, BrdU assay (FIG. 4)
Method: as §1
HEK293-OATP1B3 cell culture plates were coated with poly-D-lysine.
Coating with Poly-D-Lysine: • 5 mg poly D-lysine in 50 ml sterile water • 50 μl in each well of a 96 well plate • Incubation for 1 h at RT • Washing of wells twice with 200 μl sterile water • Drying for at least for 2 h (RT)
as §2, §3, §4, §5
Further Dilutions: • A: 200 μl 1.0×10^−5 M • B: 80 μl growth medium+20 μl solution A (1:5 dilution) • C: 80 μl growth medium+20 μl solution B (1:5 dilution) • D: 80 μl growth medium+20 μl solution C (1:5 dilution) • E: 80 μl growth medium+20 μl solution D (1:5 dilution) • F: 80 μl growth medium+20 μl solution E (1:5 dilution) • G: 80 μl growth medium+20 μl solution F (1:5 dilution) • H: 80 μl growth medium+20 μl solution G (1:5 dilution) […]

In the case of amanitin, the Kd [1] is given as 0.003 µM.

With `CC[C@H](C)[C@@H]1NC(=O)CNC(=O)C2Cc3c([nH]c4cc(N)ccc34)SCC(NC(=O)CNC1=O)C(=O)N[C@@H](CC(N)=O)C(=O)N1CC(O)C[C@H]1C(=O)N[C@@H]([C@@H](C)[C@@H](O)CO)C(=O)N2` (stereo partly drawn) [HDP 30.2528, 6′-amino-amaninamide] (cyclo(GIG[ξC]N[X1][Ile(4R-OH,5-OH)][X2]); thioether 4-8) the EC50 at 96 h [2] was 3 µM and the EC50 at 96 h [3] was 0.03 µM.
